Assay results reported in PubChem BioAssay (NCI).
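Here, GI50 denotes the concentration required for 50% inhibition of growth. Definition used: TGI = concentration required for complete inhibition of growth.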

Key:
Assay in all cases: NCI-60 cell line screen, 384-well format; in the data active = GI50 below about 0.43 µM; inactive = the rest
A498 renal = system: A498 renal
A549 NSCLC = system: A549 NSCLC
ACHN renal = system: ACHN renal
BT-549 breast = system: BT-549 breast
CAKI-1 renal = system: CAKI-1 renal
COLO 205 colon = system: COLO 205 colon
DU-145 prostate = system: DU-145 prostate
EKVX NSCLC = system: EKVX NSCLC
HCT-116 colon = system: HCT-116 colon
HCT-15 colon = system: HCT-15 colon
HL-60(TB) leukemia = system: HL-60(TB) leukemia
HOP-62 NSCLC = system: HOP-62 NSCLC
HOP-92 NSCLC = system: HOP-92 NSCLC
HS 578T breast = system: HS 578T breast
HT29 colon = system: HT29 colon
IGROV1 ovarian = system: IGROV1 ovarian
K-562 leukemia = system: K-562 leukemia
KM12 colon = system: KM12 colon
M14 melanoma = system: M14 melanoma
MALME-3M melanoma = system: MALME-3M melanoma
MCF7 breast = system: MCF7 breast
MDA-MB-231 breast = system: MDA-MB-231 breast
MDA-MB-435 melanoma = system: MDA-MB-435 melanoma
MDA-MB-468 breast = system: MDA-MB-468 breast
MOLT-4 leukemia = system: MOLT-4 leukemia
NCI-H226 lung = system: NCI-H226 lung
NCI-H23 lung = system: NCI-H23 lung
NCI-H322M lung = system: NCI-H322M lung
NCI-H522 lung = system: NCI-H522 lung
OVCAR-3 ovarian = system: OVCAR-3 ovarian
OVCAR-4 ovarian = system: OVCAR-4 ovarian
OVCAR-5 ovarian = system: OVCAR-5 ovarian
OVCAR-8 ovarian = system: OVCAR-8 ovarian
PC-3 prostate = system: PC-3 prostate
RXF 393 renal = system: RXF 393 renal
SF-268 CNS = system: SF-268 CNS
SF-295 CNS = system: SF-295 CNS
SF-539 CNS = system: SF-539 CNS
SK-MEL-2 melanoma = system: SK-MEL-2 melanoma
SK-MEL-28 melanoma = system: SK-MEL-28 melanoma
SN12C renal = system: SN12C renal
SNB-19 CNS = system: SNB-19 CNS
SNB-75 CNS = system: SNB-75 CNS
SR leukemia = system: SR leukemia
SW-620 colon = system: SW-620 colon
T-47D breast = system: T-47D breast
TK-10 renal = system: TK-10 renal
U251 glioblastoma = system: U251 glioblastoma
UACC-257 melanoma = system: UACC-257 melanoma
UACC-62 melanoma = system: UACC-62 melanoma
UO-31 renal = system: UO-31 renal

CNC(=O)c1cn(C[C@H](F)CCc2ccc(NC(=O)Cc3cc(OC4CC(F)(F)C4)cc(C)n3)nn2)nn1
> 100 µM: TGI (ACHN renal) | TGI (BT-549 breast) | TGI (CAKI-1 renal) | TGI (COLO 205 colon) | TGI (EKVX NSCLC) | TGI (HCT-116 colon) | TGI (HCT-15 colon) | TGI (HL-60(TB) leukemia) | TGI (HOP-92 NSCLC) | TGI (HT29 colon) | TGI (IGROV1 ovarian) | TGI (K-562 leukemia) | TGI (KM12 colon) | TGI (M14 melanoma) | TGI (MALME-3M melanoma) | TGI (MCF7 breast) | TGI (MDA-MB-231 breast) | TGI (MDA-MB-435 melanoma) | TGI (MDA-MB-468 breast) | TGI (MOLT-4 leukemia) | TGI (NCI-H226 lung) | TGI (NCI-H23 lung) | TGI (NCI-H522 lung) | TGI (OVCAR-3 ovarian) | TGI (OVCAR-4 ovarian) | TGI (OVCAR-5 ovarian) | TGI (OVCAR-8 ovarian) | TGI (PC-3 prostate) | TGI (SF-268 CNS) | TGI (SF-295 CNS) | TGI (SF-539 CNS) | TGI (SK-MEL-2 melanoma) | TGI (SK-MEL-28 melanoma) | TGI (SNB-19 CNS) | TGI (SNB-75 CNS) | TGI (SR leukemia) | TGI (SW-620 colon) | TGI (T-47D breast) | TGI (TK-10 renal) | TGI (U251 glioblastoma) | TGI (UACC-257 melanoma) | TGI (UACC-62 melanoma) | TGI (UO-31 renal)
inactive: GI50 (ACHN renal) > 100 µM | GI50 (BT-549 breast) > 100 µM | GI50 (COLO 205 colon) > 100 µM | GI50 (EKVX NSCLC) > 100 µM | GI50 (HCT-116 colon) > 100 µM | GI50 (HCT-15 colon) > 100 µM | GI50 (HL-60(TB) leukemia) > 100 µM | GI50 (HOP-92 NSCLC) > 100 µM | GI50 (HT29 colon) > 100 µM | GI50 (IGROV1 ovarian) > 100 µM | GI50 (K-562 leukemia) 85.1 µM | GI50 (KM12 colon) 0.946 µM | GI50 (M14 melanoma) > 100 µM | GI50 (MALME-3M melanoma) > 100 µM | GI50 (MCF7 breast) > 100 µM | GI50 (MDA-MB-435 melanoma) > 100 µM | GI50 (MDA-MB-468 breast) > 100 µM | GI50 (MOLT-4 leukemia) 66.8 µM | GI50 (NCI-H226 lung) > 100 µM | GI50 (NCI-H23 lung) > 100 µM | GI50 (OVCAR-3 ovarian) > 100 µM | GI50 (OVCAR-4 ovarian) > 100 µM | GI50 (OVCAR-5 ovarian) > 100 µM | GI50 (OVCAR-8 ovarian) > 100 µM | GI50 (PC-3 prostate) > 100 µM | GI50 (SF-295 CNS) 1.51 µM | GI50 (SF-539 CNS) > 100 µM | GI50 (SK-MEL-2 melanoma) 0.436 µM | GI50 (SK-MEL-28 melanoma) > 100 µM | GI50 (SNB-19 CNS) > 100 µM | GI50 (SNB-75 CNS) > 100 µM | GI50 (SR leukemia) 18.8 µM | GI50 (SW-620 colon) > 100 µM | GI50 (T-47D breast) > 100 µM | GI50 (UACC-257 melanoma) > 100 µM | GI50 (UACC-62 melanoma) > 100 µM | GI50 (UO-31 renal) > 100 µM
0.533 µM: TGI (HS 578T breast)
0.11 µM: TGI (RXF 393 renal)
0.32 µM: TGI (SN12C renal)
0.0879 µM: TGI (A549 NSCLC)
7.68 µM: TGI (DU-145 prostate)
0.594 µM: TGI (HOP-62 NSCLC)
active: GI50 (A498 renal) 0.163 µM | GI50 (A549 NSCLC) 0.0278 µM | GI50 (CAKI-1 renal) 0.38 µM | GI50 (DU-145 prostate) 0.401 µM | GI50 (HOP-62 NSCLC) 0.127 µM | GI50 (HS 578T breast) 0.0721 µM | GI50 (MDA-MB-231 breast) 0.389 µM | GI50 (NCI-H322M lung) 0.0772 µM | GI50 (NCI-H522 lung) 0.31 µM | GI50 (RXF 393 renal) 0.0276 µM | GI50 (SF-268 CNS) 0.407 µM | GI50 (SN12C renal) 0.0398 µM | GI50 (TK-10 renal) 0.31 µM | GI50 (U251 glioblastoma) 0.119 µM
0.492 µM: TGI (A498 renal)
0.321 µM: TGI (NCI-H322M lung)
